Assays:
corn [1] = experiment: Example 5, Procedure I: Herbicide No. 1 + alachlor (No. 7) with Antidote Nos. 15 and 16; assay type: in vivo; details: Herbicide No.1 6.72 + No.7 2.24 kg/ha + antidote 2.24 kg/ha
Procedure: (§1) Containers were filled and compacted with a fumigated silt loam top soil to a depth of about 1.3 cm from the top of the container. A first container was designated as an untreated control, a second container was designated as a herbicide control, and a third container was designated as a herbicide + antidote test container. Each of the containers was seeded with a crop species. A measured amount of herbicide dispersed or dissolved in acetone was applied to a measured quantity of soil. To this same quantity of soil treated with herbicide, there was added a measured amount of antidote dispersed or dissolved in acetone. The quantity of soil treated with the herbicide and antidote was thoroughly mixed to incorporate the herbicide and antidote in the soil uniformly. The seed bed in the third container of soil was covered with the soil treated with the herbicide and antidote and the container was leveled. For each test series, the seed beds of the first and second containers were likewise covered by soil layers. the cover layer of the first container was not treated with herbicide or antidote.
(§2) The containers were then placed on a bench in a greenhouse and sub-irrigated as required for the duration of the test. […] Plant response is measured in terms of percent injury. Antidote efficacy is indicated as the difference in plant injury by the herbicide(s) without the antidote and with the antidote.
This example describes tests with Antidote Nos. 15 and 16 to safen Herbicide No. 1 according to Procedure I using corn and the weeds barnyardgrass and velvetleaf as the test plants.
In the tests described in this example, the same procedure described in Example 4 was performed simultaneously therewith and under the same conditions, except that a co-herbicide, alachlor, was included in the same composition with Herbicide No. 1 and Antidote Nos. 15 and 16. Alachlor (Herbicide No. 7 herein) is the active ingredient in the commercial product LASSO® herbicide.

corn [2] = experiment: Example 7, Procedure II: Herbicide No. 1 + metolachlor (No. 12) with antidotes; assay type: in vivo
Procedure: as §1, §2
(§3) This procedure is the same as Procedure I, but modified in the manner that after incorporation of the chemicals (herbicide and antidote) the containers with the covered seedbed were treated with an initial overhead irrigation equivalent to 0.6 cm rainfall, then subsequently sub-irrigated as required on greenhouse benches.
In this example, Procedure II described above was followed. The data from the tests in this example is shown in Table 6 and represents averages of duplicate replications.
The tests in this example followed the same procedure and antidotes used in Example 6. However, Herbicide No. 12 (metolachlor) was used as the co-herbicide with Herbicide No. 1.

corn [3] = experiment: Example 9, Procedure II: Herbicide No. 1 + pretilachlor (No. 13) with antidotes; assay type: in vivo; details: Herbicide Nos. 1 and 13, Table 9
Procedure: as §1, §2, §3
In this example the safening effect on a composition comprising Herbicide No. 1 and another leading rice herbicide, i.e., Herbicide No. 13, was investigated using the same antidotes and test procedure described in the preceding example. Herbicide No. 13 is pretilachlor, active ingredient used in the commercial rice herbicides RIFIT®, SOFIT® and SOFIT® SUPER.

corn [4] = experiment: Example 11, Procedure II: Herbicide No. 1 + metazachlor (No. 14) with antidotes; assay type: in vivo; details: Herbicides 1 and 14, Table 11
Procedure: as §1, §2, §3
In this example, yet another α-chloroacetanilide co-herbicide, metazachlor (Herbicide No. 14) was combined with Herbicide No. 1 for investigation of the effect of various safeners on that composition. Metazachlor is the active ingredient in the commercial herbicide BUTISAN® S, used here as a 500 g/L formulation.

corn [5] = experiment: Example 19, Procedure II: Herbicide No. 1 + ERADICANE EXTRA with added antidotes; assay type: in vivo; details: Herbicide No. 1 + ERADICANE EXTRA + added antidote, highest rates of antidotes and herbicides
Procedure: as §1, §2, §3
(§4) In the test reported in this example, the herbicidal composition was similar to that used in Example 16 in that Herbicide No. 1 was combined with EPTC (Herbicide No. 4) as a co-herbicide and the antidotes included Nos. 1, 2, 7, 13 and 15. However, in this test the EPTC was introduced as a formulation of ERADICANE (EPTC + the antidote R-25788, i.e., Antidote No. 1) at an application rate of 8.96 kg/ha. Thus, in this test two antidotes were present, viz. R-25788 and one of the auxilliary antidotes, No. 2, 13 and 15.
The test reported in this example was performed in the same manner and with the same antidotes used in Example 18, the only difference being the substitution of the commercial herbicidal product ERADICANE® EXTRA for ERADICANE®. ERADICANE EXTRA is a formulation containing both an antidote, i.e., R-29148 (Antidote No. 5 herein), and an extender, dietholate.

corn [6] = experiment: Example 25, greenhouse preemergence test: Antidote Nos. 1 and 2 against Herbicide Nos. 1-3; assay type: in vivo, Corn (Pioneer 3424 variety); details: preemergence
Procedure: The chemicals were tested in both preemergence and post-emergence modes of application. The herbicides were prepared and applied as wettable powders; dichlormid was applied as an emulsifiable concentrate, while the naphthalic anhydride was applied as a coating on the corn seed prior to planting.
(§5) Test data from the preemergence tests are shown in Table 25A and from the post-emergence tests in Table 25B. In the tables, the concentration of chemicals is shown in terms of active ingredient in grams per hectare (G/ha); concentrations of the naphthalic anhydride were not measured per se, but were present as in conventional, normally-coated applications. Corn injury is shown in terms of percent inhibition of growth.

corn [7] = experiment: Example 25, greenhouse post-emergence test: Antidote Nos. 1 and 2 against Herbicide Nos. 1-3; assay type: in vivo, Corn (Pioneer 3424 variety); details: Herbicide Nos. 1-3
Procedure: Additional tests were conducted in the greenhouse in order to evaluate the antidotal efficacy of Antidote Nos. 1 (dichlormid) and 2 (naphthalic anhydride) in protecting corn from the herbicidal activity of Herbicide Nos. 1-3 (i.e., NC-319, NC-319 EX and NC-311, respectively). The chemicals were tested in both preemergence and post-emergence modes of application. The herbicides were prepared and applied as wettable powders; dichlormid was applied as an emulsifiable concentrate, while the naphthalic anhydride was applied as a coating on the corn seed prior to planting.
Corn seeds (Pioneer 3424 variety) were planted in alluvial soil containing compost and fertilizer in pots 12 cm. in diameter. Test chemicals were applied with a spray gun at the spray volume rate of 11.2 l/ha at the time of seeding in the preemergence tests and seven (7) days after seeding in the post-emergence tests, when the check (control) plants were at the 16-20 cm., 3.0-3.2 leaf stage, and naphthalic anhydride coated seed grown plants were at the 14-16 cm., 2.8-3.0 leaf stage.
as §5

corn [8] = experiment: Example 12, Procedure II: Herbicide No. 1 + acetochlor (No. 6) with thirteen antidotes; assay type: in vivo; details: Herbicide No. 1:Herbicide 6:Antidote 0.56:2.24:2.24 kg/ha
Procedure: as §1, §2, §3
This example was designed to investigate the efficacy of thirteen different antidotes from different classes of chemistry as safeners against compositions of Herbicide No. 1 and acetochlor (Herbicide No. 6) as co-herbicide. Acetochlor is the active ingredient in the commercial herbicides GUARDIAN® and WENNER®.
The test procedure used in this example was Procedure II described above.

corn [9] = experiment: Example 13, Procedure II: Herbicide No. 1 + acetochlor (No. 6) with dichloroacetamide antidotes; assay type: in vivo; details: Herbicide Nos. 1 and 6, Table 13
Procedure: as §1, §2, §3
In this example a plurality of dichloroacetamide antidotes were tested for their safening efficacy against a herbicidal composition comprising Herbicide No. 1 and a co-herbicide, acetochlor (Herbicide No. 6) in corn in the presence of velvetleaf. The procedure used in this example was Procedure II above.

corn [10] = experiment: Example 15, Procedure II: Herbicide No. 1 + butylate (No. 10) with antidotes; assay type: in vivo; details: Herbicide No. 1 1.12 and 0.56 kg/ha + Herbicide No. 10 6.72 kg/ha PPI, Table 15
Procedure: as §1, §2, §3
This example describes experiments designed to investigate the antidotal efficacy of a plurality of antidotes against the herbicidal action of a combination of Herbicide No. 1 and butylate in corn and the prevalent weeds barnyardgrass and velvetleaf. The antidotes used in these experiments were Nos. 1-10, 12, 13 and 15.
The test procedure used in these experiments was that of Procedure II described above. The antidotes were applied to a soil cover layer by pipet after spraying the herbicides onto the soil, followed by incorporation and overhead irrigation.

corn [11] = experiment: Example 18, Procedure II: Herbicide No. 1 + ERADICANE (EPTC + R-25788) with auxiliary antidotes; assay type: in vivo; details: Herbicide No. 1 + ERADICANE 8.96 kg/ha, PPI, Table 18
Procedure: as §1, §2, §3, §4
Test procedures were those of Procedure II above.

Row | SMILES | safening of corn, assessment in words (corn [4]) | corn injury (corn [5]) [%] | safening of corn, assessment in words (corn [7]) | safening of corn, assessment in words (corn [10]) | other results
1 | C=CCN(CC=C)C(=O)C(Cl)Cl [Antidote No. 1, Acetamide, N,N-bis(2-propenyl)-α,α-dichloro] | outperformed the antidotes (2 and 13) of other chemistries | 25 | did not exhibit noticeable safening effect |  | % Injury Corn (corn [1]): 50%; safening of corn, assessment in words (corn [2]; Herbicide Nos. 1 and 12, Table 7): best safening effect across four treatments; safening of corn, assessment in words (corn [3]): best safening effect across four treatments; inhibition at 7.41 g/ha (corn [6]; Zea mays, pre-emergence, Herbicide No. 3 0.25 G/ha + Antidote No. 1 7.41 G/ha, read-out: corn injury, percent inhibition of growth): 43%
2 | O=C1OC(=O)c2cccc3cccc1c23 [Antidote No. 2, 1H, 3H-Naphtho [1,8-cd]pyran-1,3-dione] |  |  | significantly reduced corn injury by Herbicides No. 1 and 3 at the highest rates of application, but not at lower rates |  | safening of corn, assessment in words (corn [8]): performed at commercial levels; safening of corn, assessment in words (corn [6]; Herbicide Nos. 1-3 at the two highest rates): significantly reduced corn injury
3 | CC1CN(C(=O)C(Cl)Cl)C(C)(C)O1 (stereo not drawn) [Antidote No. 5, Oxazolidine, 3-(dichloroacetyl)-2,2,5-trimethyl-] |  |  |  |  | safening of corn, assessment in words (corn [9]): Commercial-level safening was exhibited at all rates and combinations
4 | O=C(C(Cl)Cl)N1CCOC12CCCCC2 [Antidote No. 7, 1-Oxa-4-azaspiro[4,5]decane, 4-(dichloroacetyl)-] | outperformed the antidotes (2 and 13) of other chemistries | 25 |  | complete protection against corn injury | % Injury Corn (corn [2]; Herbicide No.1 0.56 + No.12 3.36 kg/ha + antidote 2.24 kg/ha): 20%; corn injury, assessment in words (corn [11]): slightly lower
5 | O=C(C(Cl)Cl)N1CCCCN(C(=O)C(Cl)Cl)CCC1 [Antidote No. 8, 1,5-Diazacyclononane, 1,5-bis(dichloroacetyl)-] |  |  |  | complete protection against corn injury | 
6 | CC1c2ccccc2CCN1C(=O)C(Cl)Cl (stereo not drawn) [Antidote No. 12] |  |  |  | complete protection against corn injury | 

From EP0603240B1, “SAFENING HERBICIDAL PYRAZOLYLSULFONYLUREAS” (priority 1991, dated 1993)
